Assay results from ChEMBL document CHEMBL1201862, “PubChem BioAssay data set” (2004).
Structures can show the parent of a compound that is named as a salt.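 Step 1: Grow cells in 96-well plates. Step 2: Expose to compound for 48 hours at 5 concentrations. Step 3: Interpolate endpoints linearly; if unreached, use highest concentration. Here, GI50 denotes the concentration required for 50% inhibition of growth.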 Calls of active or inactive are those of the source. Rule as the data show it: active = GI50 up to about 1.1 µM and inactive = higher.

How the values were obtained:
Assay in all cases: NCI-60 cell line screen, 48 h
786-0 = tested on: 786-0
HT-29 = tested on: HT-29
SR = tested on: SR
SK-MEL-28 = tested on: SK-MEL-28
SF-539 = tested on: SF-539
OVCAR-4 = tested on: OVCAR-4
HCT-15 = tested on: HCT-15
Malme-3M = tested on: Malme-3M
A498 = tested on: A498
HCC 2998 = tested on: HCC 2998
K562 = tested on: K562
UACC-257 = tested on: UACC-257
SF-268 = tested on: SF-268
LOX IMVI = tested on: LOX IMVI
SNB-78 = tested on: SNB-78
RPMI-8226 = tested on: RPMI-8226
UO-31 = tested on: UO-31
OVCAR-3 = tested on: OVCAR-3
HOP-62 = tested on: HOP-62
SF-295 = tested on: SF-295

Row | SMILES | GI50 (786-0) | GI50 (HT-29) | GI50 (SR) | GI50 (SK-MEL-28) | GI50 (SF-539) | GI50 (OVCAR-4) | GI50 (HCT-15) [µM] | GI50 (Malme-3M) | GI50 (A498) | GI50 (HCC 2998) | GI50 (K562) | GI50 (UACC-257) | GI50 (SF-268) | GI50 (LOX IMVI) | GI50 (SNB-78) | GI50 (RPMI-8226) | GI50 (UO-31) | GI50 (OVCAR-3) | GI50 (HOP-62) | GI50 (SF-295)
1 | C[C@H](O)CCC(=O)c1ccoc1 | > 100 µM (inactive) | > 100 µM (inactive) | > 100 µM (inactive) | > 100 µM (inactive) | > 100 µM (inactive) | > 100 µM (inactive) | > 100 | > 100 µM (inactive) | > 100 µM (inactive) | > 66.1 µM (inactive) | > 100 µM (inactive) | > 100 µM (inactive) | > 100 µM (inactive) | > 100 µM (inactive) | > 100 µM (inactive) | > 100 µM (inactive) | > 100 µM (inactive) | > 100 µM (inactive) | > 100 µM (inactive) | > 100 µM (inactive)
2 | O=C1C(CN2CCOCC2)CCCC1CN1CCOCC1 (stereo not given) | 1.16 µM (inactive) | 1.76 µM (inactive) | 5.31 µM (inactive) | 1.95 µM (inactive) | 3.92 µM (inactive) | 2.18 µM (inactive) | 1.09 | 0.724 µM (active) | 23 µM (inactive) | 5.27 µM (inactive) | 0.48 µM (active) | 2.09 µM (inactive) | 9.77 µM (inactive) | 3.28 µM (inactive) | 2.35 µM (inactive) | 0.296 µM (active) | 9.73 µM (inactive) | 3.1 µM (inactive) | > 100 µM (inactive) | 33.4 µM (inactive)
3 | CC(C)OCN/C(N)=N\C#N | 82.4 µM (inactive) | 43.8 µM (inactive) | 10.8 µM (inactive) | > 100 µM (inactive) | > 100 µM (inactive) | > 100 µM (inactive) | 17.5 | > 100 µM (inactive) | > 100 µM (inactive) | > 100 µM (inactive) | > 100 µM (inactive) | > 100 µM (inactive) | > 100 µM (inactive) | 20.5 µM (inactive) | > 100 µM (inactive) | 24 µM (inactive) | > 100 µM (inactive) | > 100 µM (inactive) | > 100 µM (inactive) | > 100 µM (inactive)
4 | COC(=O)/C=C/c1c(CC=C(C)C)ncn1C | 38.5 µM (inactive) | 14.4 µM (inactive) | 4.29 µM (inactive) | > 49.5 µM (inactive) | 17.8 µM (inactive) | 84.9 µM (inactive) | 7.85 | > 100 µM (inactive) | > 84.1 µM (inactive) | 54.6 µM (inactive) | 4.63 µM (inactive) | 61.7 µM (inactive) | > 66.7 µM (inactive) | 35.7 µM (inactive) | 53.2 µM (inactive) | 20.6 µM (inactive) | 28.2 µM (inactive) | 16.9 µM (inactive) | 42 µM (inactive) | 24.4 µM (inactive)
5 | C[C@]12CC[C@@H]3c4ccc(O)cc4CC[C@H]3[C@@H]1CC[C@@H]2OC(=O)CCC1CCCC1 [ESTRADIOL CYPIONATE] | 16.3 µM (inactive) | 17.9 µM (inactive) | 17.8 µM (inactive) | 18.2 µM (inactive) | 18.8 µM (inactive) | 17.5 µM (inactive) | 16.2 | 26.9 µM (inactive) | 20.3 µM (inactive) | 19.8 µM (inactive) | 17.2 µM (inactive) | 35 µM (inactive) | 21.8 µM (inactive) | 18 µM (inactive) | 56.9 µM (inactive) | 18.5 µM (inactive) | 18.4 µM (inactive) | 16.4 µM (inactive) | 18.8 µM (inactive) | 16.7 µM (inactive)
6 | N[C@@H](Cc1ccc(N(CCCl)CCCl)cc1)C(=O)O [MELPHALAN HYDROCHLORIDE] | 17.4 µM (inactive) | 75.3 µM (inactive) | 1.71 µM (inactive) | 57.8 µM (inactive) | 16.6 µM (inactive) | 40 µM (inactive) | 39.4 | 23.8 µM (inactive) | 99.1 µM (inactive) | 43.3 µM (inactive) | 50.7 µM (inactive) | 42.5 µM (inactive) | 19.9 µM (inactive) | 20.3 µM (inactive) | 55.5 µM (inactive) | 44 µM (inactive) | 48 µM (inactive) | 42.3 µM (inactive) | 15.4 µM (inactive) | 20 µM (inactive)
